Test results: patent US20260364138A1, “ENRICHED ASPARAGUS RACEMOSUS ROOT COMPOSITION AND PROCESS FOR PREPARATION THEREOF” (LAILA NUTRA PRIVATE LIMITED, priority 2023, published 2026)

Tests used:
[1] = test system: estrogen receptor alpha phosphorylated at Serine 118 position (pER-α); test: Evaluation of estrogen-receptor alpha (ER-α) phosphorylation by Western blot assay (normalized pER-α expression) in MCF-7 cells; format: cell-based, Human; conditions: 0.2 μg/mL, MCF-7, 4 h; for pER-α expression (normalized): Table 3 (vehicle control 0.28); for activation at 0.2 µg/mL: Homo sapiens, MCF7, read-out: % increase of pER-α (from vehicle control)
Experimental: The four compounds of Asparagus racemosus root Shatavarin I, dehydroshatavarin I, shatavarin IV, and shatavarin IX, and their combinations were evaluated for their ability to enhance the pER-α (estrogen receptor alpha phosphorylated at Serine 118 position) expression in a human breast tumor cell line, MCF-7, and the results are presented in Table 3. pER-α represents the active form of the hormone receptor.
Human MCF-7 cells (ATCC Cat #HTB-22; 5×10^5 cells/well in 3 mL) were seeded in 6-well cell culture plates and maintained in DMEM medium containing 10% FBS at 37 °C in a humidified atmosphere of 5% CO2. After 48 hours of seeding, cells were washed twice with serum-free DMEM medium (without phenol red) and maintained in the same media for another 24 hours. Cells were treated with different test samples (0.2 μg/mL) in serum-free DMEM medium and incubated for 4 hours at 37 °C in a CO2 incubator. The untreated cells served as a vehicle control.
Western blot: After the incubation, cell culture plates were placed on an ice tray and washed twice with cold 1×PBS. Eighty microliters of lysis buffer (10 mM Tris-HCl pH 7.4, 150 mM NaCl, 1 mM EDTA, 1 mM [COMPOUND LEFT OUT], 10 μg/mL Aprotinin, 10 μg/mL Leupeptin, 1% Triton X-100, 1 mM NaF, 1 mM Na3VO4, 0.5% Sodium deoxycholate, and 1 μM Pepstatin) was added to each well and sonicated for 30 seconds. Following homogenization, samples were centrifuged at 16128×g for 10 minutes at 4 °C to sediment unbroken cells and nuclei. Supernatant was collected, and protein was quantified using a Pierce BCA protein assay kit (Thermo Scientific Cat #23225). SDS-PAGE was performed for the protein samples, and resolved proteins were transferred onto nitrocellulose membrane using the wet blotting method. Briefly, 10 μg of protein was loaded onto acrylamide gel (7.5% resolving) and ran at 100V for approximately 1 hour 40 minutes. At the end of the run, proteins were transferred to the nitrocellulose membrane by placing transfer system at 4 °C chamber (100V for 2 hours). After the transfer, the membrane was washed in 0.1M Tris-buffered saline containing 0.05% Tween20 (TBST) and blocked in Superblock blocking buffer (Thermo Scientific Cat #37535) with constant agitation for 30 minutes. The membrane was incubated with primary antibodies recognizing phospho-ER-α (Phosphorylation site: Ser118) in TBST for 16 hours at 4 °C with agitation. The membrane was washed three times and incubated with peroxidase affiniPure goat anti-rabbit secondary antibody (Jackson ImmunoResearch Cat #111-035-045; 1:10000 dilution) for 1 hour at room temperature with agitation, followed by three times of washing in TBST for 5 minutes each. Immunoreactive bands were detected using a chemiluminescent substrate (Thermo Scientific Cat #34080) and images were captured using Bio-Rad Molecular imager (Model: ChemiDOC MP). Membrane was stripped of the phospho-ER-α antibody and re-probed with […] antibody (Sigma Chemical Co., USA; 1:10000 dilution) by incubating at room temperature for 2 hours and images were captured. The intensities of phospho-ER-α and actin protein bands were calculated using Carestream MI software and normalized. The normalized pER-α expression (in arbitrary units) was measured using the following formula: […]

[2] = test system: Cyclophosphamide-induced primary ovarian insufficiency in Sprague Dawley rats; test: Cyclophosphamide-induced primary ovarian insufficiency in female Sprague Dawley rats, total follicular count; conditions: rat, in vivo
Experimental: Evaluation of Asparagus racemosus enriched extract compositions supplementation on total follicular count of female Sprague Dawley rats: Ovarian follicles contain oocytes and surrounded by granulosa cells. Four different types of follicles are observed in ovaries based on their development stages: primordial, primary, secondary, and tertiary (antral). The number of primordial follicles, which is the true ovarian reserve, is determined in the fetus and declines throughout life. However, the primordial follicles cannot be visualized by ultrasound due to their small size (<0.05 mm diameter). The antral or Graafian follicles are more easily identifiable by ultrasound when they reach 2 mm in diameter. It is recommended that a follicular count needs to be performed in the early follicular phase of the menstrual cycle. However, considering the intracycle fluctuation of ovarian reserve, a follicular count may be performed at any point in the menstrual cycle. […]
Example 28: In-vivo efficacy of AR-1 and Comp-1 in mitigating Cyclophosphamide-induced primary ovarian insufficiency in Sprague Dawley rats. […] Twenty randomly selected fields were analysed for primordial, primary, antral, […], and atretic follicles, and the average of total number of follicles present in each tissue section was calculated.

[3] = test system: Letrozole-induced PCOS in female Sprague Dawley rats; test: Oral glucose tolerance test (OGTT) in letrozole-induced PCOS rats; format: in vivo; conditions: mean ± SD, n = 7, 20 mg/kg daily days 22-48 after letrozole induction, letrozole group 1 mg/kg without test item, day 49
Text: Evaluation of Asparagus racemosus synergistic enriched extract compositions (comp-26, comp-27, comp-28 and 90% aqueous ethanol extract (AR-2) supplementation in letrozole-induced PCOS in female Sprague Dawley rats: Oral glucose tolerance test (OGTT): OGTT measures circulatory glucose levels following glucose ingestion, and this test is widely used as an indicator of insulin resistance. PCOS is known to cause metabolic dysfunctions, including insulin resistance. Letrozole-induced rats show impaired glucose tolerance and increased blood glucose in circulation, which closely mimics the clinical features of glucose intolerance or insulin resistance in PCOS.
Area Under the Curve (AUC) was calculated using serum glucose concentration Vs. time (in min). The AUC value was increased in letrozole-induced (G2) rats when compared with the Vehicle control (G1) rats, indicating impaired glucose tolerance or increased insulin resistance.
(§1) Following a 7-day acclimatization period, female Sprague Dawley rats (age: 10-12 weeks, body weight 250-300 g) were randomly assigned to six groups (n=7): vehicle control (G1), Letrozole (G2; 1 mg/kg), AR-2 (G3; 20 mg/kg), Comp-26 (G4; 20 mg/kg), Comp-27 (G5; 20 mg/kg), and Comp-28 (G6; 20 mg/kg).
The study was performed in two phases i.e., the induction and supplementation phases. […]

[4] = test system: Letrozole-induced PCOS in female Sprague Dawley rats; test: Serum 17β-estradiol in letrozole-induced PCOS rats; format: in vivo; conditions: mean ± SD, n = 7; 20 mg/kg daily after letrozole induction; letrozole group 1 mg/kg; day 48
Experimental: as §1
(§2) The study was performed in two phases i.e., the induction and supplementation phases. In the induction phase, all the animals, except for G1, were gavaged with letrozole to induce PCOS for 21 days. In the supplementation phase (from days 22 to 48), all rats were supplemented once daily with either the vehicle or one of the test items. An oral glucose tolerance test (OGTT) was performed on day 49 in overnight fasted rats. Blood samples were collected on day 48. The serum was separated by centrifuging the blood samples at 3200×g for 15 minutes at 4 °C and stored at −80 °C in aliquots for biomarker analysis. On day 50, all rats were euthanized using CO2 asphyxiation, and their ovaries were collected. The ovaries were fixed in 10% normal buffered formalin for histopathology examination. The fixed tissues were paraffin-embedded, sectioned (5-7 μm) using a microtome, and stained with hematoxylin-eosin following the standard protocols. The stained tissue sections were examined at 10× magnification under a light microscope (Carl Zeiss, Germany).

[5] = test system: Letrozole-induced PCOS in female Sprague Dawley rats; test: Serum testosterone in letrozole-induced PCOS rats; format: in vivo; conditions: mean ± SD, n = 7; 20 mg/kg daily after letrozole induction; letrozole group 1 mg/kg; day 48
Experimental: as §1, §2

CC1CCC2(OC1)OC1CC3C4CCC5CC(OC6OC(CO)C(OC7OC(CO)C(O)C(O)C7O)C(O)C6OC6OC(CO)C(O)C(O)C6O)CCC5(C)C4CCC3(C)C1C2C (stereo not shown) [Shatavarin IX]
pER-α expression (normalized) [1]: 0.38 arbitrary units | activation at 0.2 µg/mL ([1]; markers, Table 3): 35.7%

dehydroshatavarin I
pER-α expression (normalized) [1]: 0.45 arbitrary units | % increase of pER-α (from vehicle control) ([1]; markers, Table 3): 60.71%

CC(CCC1(O)OC2CC3C4CCC5CC(OC6OC(CO)C(OC7OC(C)C(O)C(O)C7O)C(O)C6OC6OC(CO)C(O)C(O)C6O)CCC5(C)C4CCC3(C)C2C1C)COC1OC(CO)C(O)C(O)C1O (stereo not shown) [Shatavarin I]
pER-α expression (normalized) [1]: 0.34 arbitrary units | activation at 0.2 µg/mL ([1]; markers, Table 3): 21.4%

O=P1(N(CCCl)CCCl)NCCCO1 (stereo not shown) [Cyclophosphamide]
Average total follicular count [2]: 5.63 per section

CC1CCC2(OC1)OC1CC3C4CCC5CC(OC6OC(CO)C(OC7OC(C)C(O)C(O)C7O)C(O)C6OC6OC(CO)C(O)C(O)C6O)CCC5(C)C4CCC3(C)C1C2C (stereo not shown) [Shatavarin IV]
pER-α expression (normalized) [1]: 0.40 arbitrary units | activation at 0.2 µg/mL ([1]; markers, Table 3): 42.9%

N#Cc1ccc(C(c2ccc(C#N)cc2)n2cncn2)cc1 [Letrozole]
AUC (serum glucose, OGTT) [3]: 21030 ± 4007 mg/dL/min | AUC (serum glucose, OGTT) ([3]; listed as letrozole): increased | 17β-Estradiol concentration (serum) [4]: 32.97 ± 13.89 pg/mL | Testosterone concentration (serum) [5]: 3.18 ± 1.16 pg/mL
